For one assay, the target named is T1, h-TGR5 (Homo sapiens, UniProt Q8TDU6).
T1 sequence (Q8TDU6 1-330): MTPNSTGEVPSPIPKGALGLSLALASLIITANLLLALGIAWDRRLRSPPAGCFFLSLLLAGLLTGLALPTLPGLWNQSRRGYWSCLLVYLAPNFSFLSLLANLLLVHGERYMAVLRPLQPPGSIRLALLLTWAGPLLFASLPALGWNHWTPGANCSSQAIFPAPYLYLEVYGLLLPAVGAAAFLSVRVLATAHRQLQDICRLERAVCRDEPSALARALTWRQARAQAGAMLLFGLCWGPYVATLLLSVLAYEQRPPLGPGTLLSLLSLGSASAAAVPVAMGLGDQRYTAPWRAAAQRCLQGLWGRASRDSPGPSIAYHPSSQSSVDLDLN
Kind of assay: TGR5 cAMP Assay using Cisbio cAMP Dynamic 2 htrf assay kit. Type of assay: cell-based. To be noted: hTGR5CRE-luc HEK 293 cells.

A further assay addresses T2, human TGR5 (h-TGR5) (Homo sapiens, UniProt Q8TDU6).
T2 sequence (Q8TDU6 1-330): T1 sequence (Q8TDU6 1-330)
Put plainly: TGR5/CRE-Luciferase Assay. Type of assay: cell-based. To be noted: HEK 293 hTGR5/CRE-Luc cells, 6 hours incubation, read-out: CRE-Luc Agonist (EC50). The method, boiled down: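 HEK 293 CRE-Luciferase cells stably expressing the receptor, plated in DMEM 18-20 h before assay, then exposed to serially diluted compounds (DMEM with 5% DMSO) for 6 h. Luciferase read-out after lysis; EC50 from dose-response.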

As a reminder, the EC50 is the concentration at which the effect is half-maximal.

`COc1cc(-n2c(C(C)(C)c3ccc(S(N)(=O)=O)c(Cl)c3)cnc2SCc2c(F)cc(S(=O)(=O)NCCC[N+](C)(C)C)cc2F)ccc1F` [Example 6b, 3-{[(4-{[(5-{1-[4-(aminosulfonyl)-3-chlorophenyl]-1-methylethyl}-1-[4-fluoro-3-(methyloxy)phenyl]-1H-imidazol-2-yl)thio]methyl}-3,5-difluorophenyl)sulfonyl]amino}-N,N,N-trimethylpropan-1-aminium]: the 50% effective concentration (EC50) on h-TGR5 and on human TGR5 (h-TGR5) was less than 100 nM throughout.

On to `COc1cc(C(C)(C)c2cnc(SCc3c(F)cc(C(=O)NCC[N+](C)(C)CCCS(=O)(=O)[O-])cc3Cl)n2-c2ccc(F)cc2)ccc1Cl` [Example 4, 3-((2-(3-Chloro-4-((5-(2-(4-chloro-3-methoxyphenyl)propan-2-yl)-1-(4-fluorophenyl)-1H-imidazol-2-ylthio)methyl)-5-fluorobenzamido)ethyl)dimethylammonio)-propane-1-sulfonate], for which the 50% effective concentration (EC50) at h-TGR5 and at human TGR5 (h-TGR5) was less than 100 nM each time.

Regarding `COc1cc(C(C)(C)c2cnc(SCc3c(F)cc(S(=O)(=O)NCCC[n+]4ccccc4)cc3Cl)n2-c2ccc(F)cc2)ccc1F` [Example 9, 1-(3-(3-chloro-5-fluoro-4-((5-(2-(4-fluoro-3-methoxyphenyl)propan-2-yl)-1-(4-fluorophenyl)-1H-imidazol-2-ylthio)methyl)phenylsulfonamido)propyl)pyridinium methanesulfonate], the EC50 at h-TGR5 and at human TGR5 (h-TGR5) was less than 100 nM each time.

With `COc1cc(C(C)(C)c2cnc(SCc3c(F)cc(S(=O)(=O)NCCCC[N+](C)(C)C)cc3F)n2-c2ccc(F)cc2)ccc1Cl` [Example 6r, 4-({[4-({[5-{1-[4-chloro-3-(methyloxy)phenyl]-1-methylethyl}-1-(4-fluorophenyl)-1H-imidazol-2-yl]thio}methyl)-3,5-difluorophenyl]sulfonyl}amino)-N,N,N-trimethylbutan-1-aminium], the EC50 on h-TGR5 and at human TGR5 (h-TGR5) was less than 100 nM each time.

Take `COc1cc(C(C)(C)c2cnc(SCc3c(F)cc(S(=O)(=O)N(CCC[N+](C)(C)C)[C@H](C)C(=O)O)cc3Cl)n2-c2ccc(F)cc2)cc(F)c1F` [Compound 14c, (R)-3-(N-(1-carboxyethyl)-3-chloro-4-((5-(2-(3,4-difluoro-5-methoxyphenyl)propan-2-yl)-1-(4-fluorophenyl)-1H-imidazol-2-ylthio)methyl)-5-fluorophenylsulfonamido)-N,N,N-trimethylpropan-1-aminium 2,2,2-trifluoroacetate]: the 50% effective concentration (EC50) on h-TGR5 and at human TGR5 (h-TGR5) was less than 100 nM each time.

In the case of `CC(C)(c1ccc(Cl)c(O)c1)c1cnc(SCc2c(F)cc(S(=O)(=O)NCCC[N+](C)(C)C)cc2F)n1-c1ccc(F)cc1` [Compound 13a, 3-(4-((5-(2-(4-chloro-3-hydroxyphenyl)propan-2-yl)-1-(4-fluorophenyl)-1H-imidazol-2-ylthio)methyl)-3,5-difluorophenylsulfonamido)-N,N,N-trimethylpropan-1-aminium 2,2,2-trifluoroacetate], the EC50 on h-TGR5 and on human TGR5 (h-TGR5) was 100 to 1000 nM in each case.

For `COc1cc(C(C)(C)c2cnc(SCc3c(F)cc(S(=O)(=O)N(C)[C@@H](CCCC[N+](C)(C)C)C(=O)O)cc3Cl)n2-c2ccc(F)cc2)ccc1Cl` [Compound 17f, (S)-5-carboxy-5-(3-chloro-4-((5-(2-(4-chloro-3-methoxyphenyl)propan-2-yl)-1-(4-fluorophenyl)-1H-imidazol-2-ylthio)methyl)-5-fluoro-N-methylphenylsulfonamido)-N,N,N-trimethylpentan-1-aminium 2,2,2-trifluoroacetate], the concentration giving a half-maximal response (EC50) on h-TGR5 and on human TGR5 (h-TGR5) was less than 100 nM in each case.

`COc1cc(C(C)(C)c2cnc(SCc3c(F)cc(S(=O)(=O)N(CCC[N+](C)(C)C)[C@@H](CO)C(=O)O)cc3F)n2-c2ccc(F)cc2)ccc1Cl` [Compound 14t, 3-([(1S)-1-carboxy-2-hydroxyethyl]{[4-({[5-{1-[4-chloro-3-(methyloxy)phenyl]-1-methylethyl}-1-(4-fluorophenyl)-1H-imidazol-2-yl]thio}methyl)-3,5-difluorophenyl]sulfonyl}amino)-N,N,N-trimethylpropan-1-aminium]: the 50% effective concentration (EC50) at h-TGR5 and at human TGR5 (h-TGR5) was less than 100 nM in each case.

As to `CN([C@@H](CCCC[N+](C)(C)C)C(=O)O)S(=O)(=O)c1cc(F)c(CSc2ncc(C(C)(C)c3ccc(Cl)c(Cl)c3)n2-c2ccc(F)cc2)c(Cl)c1` [Compound 17h, (S)-5-carboxy-5-(3-chloro-4-((5-(2-(3,4-dichlorophenyl)propan-2-yl)-1-(4-fluorophenyl)-1H-imidazol-2-ylthio)methyl)-5-fluoro-N-methylphenylsulfonamido)-N,N,N-trimethylpentan-1-aminium 2,2,2-trifluoroacetate], the 50% effective concentration (EC50) on h-TGR5 and on human TGR5 (h-TGR5) was less than 100 nM each time.

For the compound `COc1cc(C(C)(C)c2cnc(SCc3c(F)cc(S(=O)(=O)N[C@@H](CCCC[N+](C)(C)C)C(=O)O)cc3Cl)n2-c2ccc(F)cc2)ccc1Cl` [Compound 17e, (S)-5-carboxy-5-(3-chloro-4-((5-(2-(4-chloro-3-methoxyphenyl)propan-2-yl)-1-(4-fluorophenyl)-1H-imidazol-2-ylthio)methyl)-5-fluorophenylsulfonamido)-N,N,N-trimethylpentan-1-aminium 2,2,2-trifluoroacetate], the concentration for a half-maximal effect (EC50) at h-TGR5 and at human TGR5 (h-TGR5) was less than 100 nM throughout.

Turning to `CC[N+](C)(C)CCCN(C)S(=O)(=O)c1cc(F)c(CSc2ncc(C(C)(C)c3ccc(Cl)c(OC)c3)n2-c2ccc(F)cc2)c(Cl)c1` [Compound 11m, 3-[{[3-chloro-4-({[5-{1-[4-chloro-3-(methyloxy)phenyl]-1-methylethyl}-1-(4-fluorophenyl)-1H-imidazol-2-yl]thio}methyl)-5-fluorophenyl)sulfonyl}(methyl)amino]-N-ethyl-N,N-dimethylpropan-1-aminium], the half-maximal effective concentration (EC50) on h-TGR5 and at human TGR5 (h-TGR5) was less than 100 nM throughout.

Regarding `COc1cc(C(C)(C)c2cnc(SCc3c(F)cc(S(=O)(=O)N(C)[C@@H](CCC[N+](C)(C)C)C(=O)[O-])cc3F)n2-c2ccc(F)cc2)ccc1Cl` [Compound 17], the half-maximal effective concentration (EC50) on h-TGR5 and on human TGR5 (h-TGR5) was less than 100 nM each time.

Take `CCN(CCC[N+](C)(C)C)S(=O)(=O)c1cc(F)c(CSc2ncc(C(C)(C)c3ccc(F)c(OC)c3)n2-c2ccc(F)cc2)c(Cl)c1` [Compound 14j, 3-[{[3-chloro-5-fluoro-4-({[5-{1-[4-fluoro-3-(methyloxy)phenyl]-1-methylethyl}-1-(4-fluorophenyl)-1H-imidazol-2-yl]thio}methyl)phenyl]sulfonyl} (ethyl)amino]-N,N,N-trimethylpropan-1-aminium]: the EC50 on h-TGR5 and on human TGR5 (h-TGR5) was less than 100 nM throughout.

As to `COc1cc(C(C)(C)c2cnc(SCc3c(F)cc(C(=O)NC4CC[N+](C)(C)CC4)cc3Cl)n2-c2ccc(F)cc2)ccc1Cl` [Example 2c, 4-({[3-chloro-4-({[5-{1-[4-chloro-3-(methyloxy)phenyl]-1-methylethyl}-1-(4-fluorophenyl)-1H-imidazol-2-yl]thio}methyl)-5-fluorophenyl]carbonyl}amino)-1,1-dimethylpiperidinium], the concentration for a half-maximal effect (EC50) on h-TGR5 and on human TGR5 (h-TGR5) was less than 100 nM in each case.

Take `COc1cc(C(C)(C)c2cnc(SCc3c(F)cc(S(=O)(=O)N(CCC[N+](C)(C)C)[C@@H](C)C(=O)O)cc3Cl)n2-c2ccc(F)cc2)ccc1Cl` [Compound 14x, 3-([(1S)-1-carboxyethyl]{[3-chloro-4-({[5-{1-[4-chloro-3-(methyloxy)phenyl]-1-methylethyl}-1-(4-fluorophenyl)-1H-imidazol-2-yl]thio}methyl)-5-fluorophenyl]sulfonyl}amino)-N,N,N-trimethylpropan-1-aminium]: the 50% effective concentration (EC50) at h-TGR5 and at human TGR5 (h-TGR5) was less than 100 nM in each case.

Regarding `COc1cc(C(C)(C)c2cnc(SCc3c(F)cc(S(=O)(=O)N(CCC[N+](C)(C)C)CCC(=O)O)cc3F)n2-c2ccc(F)cc2)ccc1Cl` [Compound 14r, 3-[(2-carboxyethyl){[4-({[5-{1-[4-chloro-3-(methyloxy)phenyl]-1-methylethyl}-1-(4-fluorophenyl)-1H-imidazol-2-yl]thio}methyl)-3,5-difluorophenyl]sulfonyl}amino]-N,N,N-trimethylpropan-1-aminium], the EC50 on h-TGR5 and on human TGR5 (h-TGR5) was less than 100 nM throughout.

As to `COc1cc(C(C)(C)c2cnc(SCc3c(F)cc(S(=O)(=O)N(CCC[N+](C)(C)C)[C@@H](CCC(=O)O)C(=O)O)cc3F)n2-c2ccc(F)cc2)ccc1Cl` [Compound 14ag, (S)-3-(4-((5-(2-(4-chloro-3-methoxyphenyl)propan-2-yl)-1-(4-fluorophenyl)-1H-imidazol-2-ylthio)methyl)-N-(1,3-dicarboxypropyl)-3,5-difluorophenylsulfonamido)-N,N,N-trimethylpropan-1-aminium], the figures for the concentration for a half-maximal effect (EC50) at h-TGR5 and on human TGR5 (h-TGR5) were 100 to 1000 nM and less than 100 nM, respectively.

Regarding `COc1cc(C(C)(C)c2cnc(SCc3c(F)cc(S(=O)(=O)N(C)[C@H](CCCC[N+](C)(C)C)C(=O)O)cc3Cl)n2-c2ccc(F)cc2)ccc1Cl` [Compound 17j, (R)-5-carboxy-5-(3-chloro-4-((5-(2-(4-chloro-3-methoxyphenyl)propan-2-yl)-1-(4-fluorophenyl)-1H-imidazol-2-ylthio)methyl)-5-fluoro-N-methylphenylsulfonamido)-N,N,N-trimethylpentan-1-aminium 2,2,2-trifluoroacetate], the EC50 at h-TGR5 and on human TGR5 (h-TGR5) was less than 100 nM throughout.

These data come from US8846739B2, “TGR5 agonists” (Exelixis Patent Company LLC, priority 2009, dated 2014).
